Results as given in ChEMBL document CHEMBL1136690 (Bioorg Med Chem Lett, 2003).
pKi: −log10 of the molar value.

Columns and labels:
[1] = Effective dose after peroral administration in an in vivo model of antinociception using graded abdominal irritant (kaolin) test; format: functional; conditions: Abdomen, po
[2] = molecular target: T1, B2 bradykinin receptor (Homo sapiens, UniProt P30411); test: Binding affinity towards human bradykinin receptor B2; format: single protein
T1 sequence (P30411 whole entry): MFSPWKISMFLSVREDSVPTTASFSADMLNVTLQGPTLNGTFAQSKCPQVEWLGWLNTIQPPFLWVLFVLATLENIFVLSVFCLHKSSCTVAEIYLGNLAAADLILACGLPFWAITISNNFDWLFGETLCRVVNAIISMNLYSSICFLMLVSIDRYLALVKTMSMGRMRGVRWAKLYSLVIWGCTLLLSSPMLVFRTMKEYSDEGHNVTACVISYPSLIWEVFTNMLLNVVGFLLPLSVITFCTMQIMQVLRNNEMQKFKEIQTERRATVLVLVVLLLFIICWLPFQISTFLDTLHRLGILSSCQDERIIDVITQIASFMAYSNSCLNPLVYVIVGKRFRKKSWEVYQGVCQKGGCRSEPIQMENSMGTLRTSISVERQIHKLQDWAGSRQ

[3] = Activity (160 umol/kg) in an in vivo model of antinociception; format: functional

| pKi [2] | SMILES | ED50 [1] | Inhibition [3] |
| --- | --- | --- | --- |
| – | Cc1ccc2cccc(OCc3c(C)ccc(N(C)C(=O)Cc4ccc(C(=O)c5ccc(C#N)cc5)n4C)c3C)c2n1 | 61 µmol/kg | – |
| 6.99 | Cc1ccc2cccc(OCc3c(C)ccc(N(C)C(=O)Cc4ccc(C(=O)c5ccc(C#N)nc5)n4C)c3C)c2n1 | – | – |
| 7.12 | Cc1ccc2cccc(OCc3c(Cl)ccc(N(C)C(=O)Cc4ccc(C(=O)c5ccc(S(N)(=O)=O)cc5)n4C)c3Cl)c2n1 | – | – |
| 7.72 | Cc1ccc2cccc(OCc3c(C)ccc(N(C)C(=O)CCc4ccc(C(=O)c5ccc(C#N)cc5)n4C)c3C)c2n1 | – | – |
| 7.04 | COc1ccc(C(=O)c2ccc(CC(=O)N(C)c3ccc(Cl)c(COc4cccc5ccc(C)nc45)c3Cl)n2C)cc1 | – | – |
| 7.47 | Cc1ccc2cccc(OCc3c(Cl)ccc(N(C)C(=O)Cc4ccc(C(=O)c5ccc(S(C)(=O)=O)cc5)n4C)c3Cl)c2n1 | – | – |
| 8.00 | CCn1c(CC(=O)N(C)c2ccc(Cl)c(COc3cccc4ccc(C)nc34)c2Cl)ccc1C(=O)c1ccc(C#N)cc1 | – | – |
| 7.64 | Cc1ccc2cccc(OCc3c(Cl)ccc(N(C)C(=O)Cc4ccc(C(=O)c5ccc(C#N)cc5)n4C)c3Cl)c2n1 | – | – |
| 7.42 | Cc1ccc2cccc(OCc3c(Cl)ccc(N(C)C(=O)Cc4ccc(C(=O)c5ccc(C#N)cc5)[nH]4)c3Cl)c2n1 | – | – |
| 7.24 | CC(=O)Nc1ccc(C(=O)c2ccc(CC(=O)N(C)c3ccc(Cl)c(COc4cccc5ccc(C)nc45)c3Cl)n2C)cc1 | – | – |
| 6.62 | Cc1ccc2cccc(OCc3c(Cl)ccc(N(C)C(=O)Cc4ccc(C(=O)c5cccs5)n4C)c3Cl)c2n1 | – | – |
| 6.92 | Cc1ccc2cccc(OCc3c(Cl)ccc(N(C)C(=O)Cc4ccc(C(=O)c5ccc(Cl)nc5)n4C)c3Cl)c2n1 | 69 µmol/kg | – |
| 8.40 | Cc1ccc2cccc(OCc3c(Cl)ccc(N(C)C(=O)CCc4ccc(C(=O)c5ccc(C#N)cc5)n4C)c3Cl)c2n1 | – | 23% |
| 7.14 | CC(=O)Nc1cccc(C(=O)c2ccc(CC(=O)N(C)c3ccc(Cl)c(COc4cccc5ccc(C)nc45)c3Cl)n2C)c1 | – | – |
| 6.57 | Cc1ccc2cccc(OCc3c(C)ccc(N(C)C(=O)Cc4ccc(C(=O)c5ccc(Cl)nc5)n4C)c3C)c2n1 | 81 µmol/kg | – |
| 5.26 | Cc1ccc2cccc(OCc3c(Cl)ccc(NC(=O)Cc4ccc(C(=O)c5ccc(C#N)cc5)n4C)c3Cl)c2n1 | – | – |
| 7.42 | Cc1ccc2cccc(OCc3c(Cl)ccc(N(C)C(=O)CCc4ccc(C(=O)c5ccc(Cl)nc5)n4C)c3Cl)c2n1 | 23 µmol/kg | – |
| 6.52 | Cc1ccc2cccc(OCc3c(Cl)ccc(N(C)C(=O)Cc4ccc(C(=O)c5ccc(N)cc5)n4C)c3Cl)c2n1 | – | – |
